# Assay results taken from PMC11062894, “Protein-based bandpass filters for controlling cellular signaling with chemical inputs” (Nature Chemical Biology, 2023).
# Values joined by “and” are separate entries in the source; they are usually repeats but may differ in a detail not shown here. Equal values may be shown once.
# Test system: GEMS receptors with CBPvene (Bcl2–LD3 and Bcl2high variants), STAT3-driven SEAP in HEK293T cells
# Test: GEMS SEAP reporter assay, CBPvene (Bcl2high, LD3-v and Bcl2-v variants) with venetoclax
# Type: cell-based
# [1] = CBPVene-v4-LD3v1, Venetoclax 10 nM
# [2] = CBPVene-v4-LD3v1, Venetoclax 31.6 nM
# [3] = CBPVene-v4-LD3v1, Venetoclax 100 nM
# [4] = CBPVene-v4-LD3v1, Venetoclax 316 nM
# [5] = CBPVene-v4-LD3v1, Venetoclax 1000 nM
# [6] = CBPVene-v4-LD3v1, Venetoclax 3160 nM
# [7] = CBPVene-v4-LD3v1, Venetoclax 10000 nM
# [8] = CBPVene-v5, Venetoclax 10000 nM
# [9] = CBPVene-v5-Bcl2v2, Venetoclax 1 nM
# [10] = CBPVene-v5-Bcl2v2, Venetoclax 3.16 nM
# [11] = CBPVene-v5-Bcl2v2, Venetoclax 10 nM
# [12] = CBPVene-v5-Bcl2v2, Venetoclax 31.6 nM
# [13] = CBPVene-v5-Bcl2v2, Venetoclax 316 nM
smiles,measurement,setting,value
CC1(C)CCC(CN2CCN(c3ccc(C(=O)NS(=O)(=O)c4ccc(NCC5CCOCC5)c([N+](=O)[O-])c4)c(Oc4cnc5[nH]ccc5c4)c3)CC2)=C(c2ccc(Cl)cc2)C1 [Venetoclax],Raw data Figure 5c,[1],19.6376 and 23.1796 and 21.4266
same,Raw data of Independent repeat of CBPVene-v4 vs CBPVene-v4-LD3v1,[1],12.5143 and 15.3613 and 14.2991
same,Normalized data Figure 5c,[2],33.2758 and 29.1991 and 22.5234
same,Raw data Figure 5c,[2],32.1154 and 36.1941 and 32.5835
same,Raw data of Independent repeat of CBPVene-v4 vs CBPVene-v4-LD3v1,[2],19.3224 and 24.3766 and 24.2685
same,Normalized data Figure 5c,[3],89.5011 and 73.3407 and 58.8514
same,Raw data Figure 5c,[3],86.38 and 90.9103 and 85.1375
same,Raw data of Independent repeat of CBPVene-v4 vs CBPVene-v4-LD3v1,[3],49.6855 and 59.8551 and 68.5591
same,Normalized data Figure 5c,[4],100
same,Raw data Figure 5c,[4],96.5128 and 123.956 and 144.665
same,Raw data of Independent repeat of CBPVene-v4 vs CBPVene-v4-LD3v1,[4],75.2259 and 81.7396 and 83.8142
same,Normalized data Figure 5c,[5],92.1259 and 70.027 and 66.0891
same,Raw data Figure 5c,[5],88.9133 and 86.8028 and 95.608
same,Raw data of Independent repeat of CBPVene-v4 vs CBPVene-v4-LD3v1,[5],55.2813 and 57.5308 and 55.9265
same,Normalized data Figure 5c,[6],41.115 and 38.8368 and 34.8585
same,Raw data Figure 5c,[6],39.6812 and 48.1406 and 50.4281
same,Raw data of Independent repeat of CBPVene-v4 vs CBPVene-v4-LD3v1,[6],23.1338 and 27.3241 and 29.5684
same,Normalized data Figure 5c,[7],12.9494 and 11.4961 and 9.578
same,Raw data Figure 5c,[7],12.4978 and 14.2501 and 13.8554
same,Raw data of Independent repeat of CBPVene-v4 vs CBPVene-v4-LD3v1,[7],8.884 and 10.4059 and 11.3993
same,Raw data of Independent repeat of CBPVene-v5 vs CBPVene-v5-LD3v1,"CBPVene-v5, Venetoclax 0.01 nM",29.6718 and 24.6839 and 26.501
same,Normalized data Figure 5c,"CBPVene-v5, Venetoclax 1 nM",7.442 and 6.278 and 6.718
same,Raw data Figure 5c,"CBPVene-v5, Venetoclax 1 nM",29.5956 and 26.0853 and 29.9849
same,Normalized data Figure 5c,"CBPVene-v5, Venetoclax 3.16 nM",9.477 and 7.971 and 8.021
same,Normalized data Figure 5f,"CBPVene-v5, Venetoclax 3.16 nM",5.255 and 4.508 and 3.901
same,Raw data Figure 5c,"CBPVene-v5, Venetoclax 3.16 nM",37.6876 and 33.119 and 35.8015
same,Raw data Figure 5f,"CBPVene-v5, Venetoclax 3.16 nM",30.3563 and 26.3908 and 26.6345
same,Raw data of Independent repeat of CBPVene-v5 vs CBPVene-v5-LD3v1,"CBPVene-v5, Venetoclax 3.16 nM",30.3563 and 26.3908 and 26.6345
same,Normalized data Figure 5c,"CBPVene-v5, Venetoclax 10 nM",11.5779 and 11.0151 and 10.8723
same,Normalized data Figure 5f,"CBPVene-v5, Venetoclax 10 nM",9.191 and 6.8128 and 6.589
same,Raw data Figure 5c,"CBPVene-v5, Venetoclax 10 nM",46.0425 and 45.7651 and 48.5281
same,Raw data Figure 5f,"CBPVene-v5, Venetoclax 10 nM",53.0904 and 39.8802 and 44.9895
same,Raw data of Independent repeat of CBPVene-v5 vs CBPVene-v5-LD3v1,"CBPVene-v5, Venetoclax 10 nM",53.0904 and 39.8802 and 44.9895
same,Normalized data Figure 5c,"CBPVene-v5, Venetoclax 31.6 nM",35.6775 and 32.4284 and 35.7596
same,Normalized data Figure 5f,"CBPVene-v5, Venetoclax 31.6 nM",4.7681 and 4.341 and 3.633
same,Raw data Figure 5c,"CBPVene-v5, Venetoclax 31.6 nM",141.881 and 134.732 and 159.612
same,Raw data Figure 5f,"CBPVene-v5, Venetoclax 31.6 nM",27.5418 and 25.4102 and 24.8086
same,Raw data of Independent repeat of CBPVene-v5 vs CBPVene-v5-LD3v1,"CBPVene-v5, Venetoclax 31.6 nM",27.5418 and 25.4102 and 24.8086
same,Normalized data Figure 5c,"CBPVene-v5, Venetoclax 100 nM",85.9499 and 82.2485 and 75.1301
same,Normalized data Figure 5f,"CBPVene-v5, Venetoclax 100 nM",23.389 and 18.2031 and 16.6277
same,Raw data Figure 5c,"CBPVene-v5, Venetoclax 100 nM",341.802
same,Raw data Figure 5f,"CBPVene-v5, Venetoclax 100 nM",135.101
same,Raw data of Independent repeat of CBPVene-v5 vs CBPVene-v5-LD3v1,"CBPVene-v5, Venetoclax 100 nM",135.101 and 106.556 and 113.538
same,Normalized data Figure 5c,"CBPVene-v5, Venetoclax 316 nM",100 and 99.2625
same,Normalized data Figure 5f,"CBPVene-v5, Venetoclax 316 nM",90.5991 and 73.5543 and 71.7832
same,Raw data Figure 5c,"CBPVene-v5, Venetoclax 316 nM",397.676 and 415.475 and 443.055
same,Raw data Figure 5f,"CBPVene-v5, Venetoclax 316 nM",523.324 and 430.565 and 490.151
same,Raw data of Independent repeat of CBPVene-v5 vs CBPVene-v5-LD3v1,"CBPVene-v5, Venetoclax 316 nM",523.324 and 430.565 and 490.151
same,Normalized data Figure 5c,"CBPVene-v5, Venetoclax 1000 nM",94.7389 and 93.854 and 100
same,Normalized data Figure 5f,"CBPVene-v5, Venetoclax 1000 nM",100
same,Raw data Figure 5c,"CBPVene-v5, Venetoclax 1000 nM",376.754 and 389.94 and 446.347
same,Raw data Figure 5f,"CBPVene-v5, Venetoclax 1000 nM",577.626 and 585.371 and 682.822
same,Raw data of Independent repeat of CBPVene-v5 vs CBPVene-v5-LD3v1,"CBPVene-v5, Venetoclax 1000 nM",585.371 and 682.822
same,Normalized data Figure 5c,"CBPVene-v5, Venetoclax 3160 nM",78.0027 and 76.1858 and 76.8944
same,Normalized data Figure 5f,"CBPVene-v5, Venetoclax 3160 nM",79.8503 and 79.8999 and 73.1753
same,Raw data Figure 5c,"CBPVene-v5, Venetoclax 3160 nM",310.198 and 316.533 and 343.216
same,Raw data Figure 5f,"CBPVene-v5, Venetoclax 3160 nM",461.236 and 467.711 and 499.656
same,Raw data of Independent repeat of CBPVene-v5 vs CBPVene-v5-LD3v1,"CBPVene-v5, Venetoclax 3160 nM",461.236 and 467.711 and 499.656
same,Normalized data Figure 5c,[8],34.0541 and 31.651 and 32.0007
same,Normalized data Figure 5f,[8],53.1633 and 46.1135 and 46.4962
same,Raw data Figure 5c,[8],135.425 and 131.502 and 142.834
same,Raw data Figure 5f,[8],307.085 and 269.935 and 317.486
same,Normalized data Figure 5f,[9],20.7725 and 19.0354 and 15.7869
same,Raw data Figure 5f,[9],37.9718 and 36.6065 and 35.2814
same,Normalized data Figure 5f,[10],20.3227 and 21.226 and 17.4104
same,Raw data Figure 5f,[10],37.1496 and 40.8191 and 38.9099
same,Normalized data Figure 5f,[11],19.4559 and 21.7686 and 18.6086
same,Raw data Figure 5f,[11],35.5651 and 41.8626 and 41.5876
same,Normalized data Figure 5f,[12],37.718 and 36.6086 and 30.2912
same,Raw data Figure 5f,[12],68.9479 and 70.401 and 67.6966
same,Normalized data Figure 5f,"CBPVene-v5-Bcl2v2, Venetoclax 100 nM",81.9466 and 81.1265 and 85.7326
same,Normalized data Figure 5f,[13],100
same,Raw data Figure 5f,[13],182.798 and 192.307 and 223.486
